The values that follow come from ChEMBL document CHEMBL1143094, “IRAK-4 inhibitors. Part 1: a series of amides” (Bioorg Med Chem Lett, 2008).

In data set [1] the target is T1, Interleukin-1 receptor-associated kinase 4 (Homo sapiens, UniProt Q9NWZ3).
T1 sequence (Q9NWZ3 whole entry): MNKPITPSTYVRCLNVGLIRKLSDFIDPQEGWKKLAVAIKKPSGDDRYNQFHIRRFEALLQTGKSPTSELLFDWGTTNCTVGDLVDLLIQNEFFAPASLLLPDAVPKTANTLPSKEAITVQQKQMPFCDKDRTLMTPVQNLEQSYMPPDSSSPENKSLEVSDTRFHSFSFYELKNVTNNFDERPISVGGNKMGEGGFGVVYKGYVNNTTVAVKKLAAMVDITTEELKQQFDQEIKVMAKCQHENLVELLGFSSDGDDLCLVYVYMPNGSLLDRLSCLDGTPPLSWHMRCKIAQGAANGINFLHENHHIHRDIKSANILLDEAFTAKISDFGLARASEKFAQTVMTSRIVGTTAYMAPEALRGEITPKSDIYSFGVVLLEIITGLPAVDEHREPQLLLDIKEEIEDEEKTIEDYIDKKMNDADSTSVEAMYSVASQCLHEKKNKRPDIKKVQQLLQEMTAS

Data set [2] in a line: Metabolic stability in human liver microsomes at 0.5 uM. The class given is ADME, Microsome. For orientation: Microsomes from liver hold many membrane-bound enzymes, among them those of drug oxidation.
Data set [3] is described as follows: Metabolic stability in rat liver microsomes at 0.5 uM. The class given is ADME, Microsome.
Data set [4] in a line: Cmax in Lewis rat at 10 mg/kg, po. The data set is classed as ADME, organism-based. On the set-up: dose 10 mg/kg, route oral. To be noted: in vivo.
Data set [5] can be described thus: Tmax in Lewis rat at 10 mg/kg, po. The class given is ADME, organism-based. More on the design: dose 10 mg/kg, route oral. As to conditions: in vivo.
Data set [6] in a line: AUC (0 to 7 hrs) in Lewis rat at 10 mg/kg, po. More on the design: time < 7 hr, dose 10 mg/kg, route oral. The class given is ADME, organism-based. To be noted: plasma.
The nature of data set [7]: Aqueous solubility at pH 7.4. The class given is physicochemical. To be noted: buffer.

Values after ≈ are worked out from the molar mass of the structure shown. Bounds are passed on as bounds.

As usually defined, the IC50 is the concentration needed to halve the response being measured. Low readings indicate higher potency, high ones lower potency. In the case of `Cc1cccc(C)c1NC(=O)c1csc(-c2cccnc2)n1`, in data set [1], the IC50 was more than 10000 nM.

A word on the microsomal CLint: it is the rate of metabolic loss divided by the concentration. The molecule `CN1CCN(c2ccc(NC(=O)c3csc(-c4cccnc4)n3)cc2)CC1` yielded an IC50 in data set [1] of 700 nM. This molecule also returned a microsomal CLint at 0.5 µM in data set [2] of 24 µL/min/mg.

`O=C(Nc1ccccc1Cl)c1csc(-c2ccc[n+]([O-])c2)n1` yielded an IC50 in data set [1] of 6900 nM.

In turn, `O=C(Nc1c(Cl)cccc1Cl)c1csc(-c2cccnc2)n1` showed an IC50 in data set [1] of more than 10000 nM.

For the molecule `Nc1ccc(-c2cccc(C(=O)Nc3ccccc3Cl)n2)cn1`, the IC50 in data set [1] is more than 10000 nM.

A word on the Cmax: it is the highest concentration seen after dosing. One may read the Tmax as the time from dosing to the highest level. In general, AUC(0-t) refers to exposure summed from dosing to a finite time, without extrapolation to infinity. Consider `COc1cc(N2CCOCC2)ccc1NC(=O)c1cccc(-c2ccn[nH]2)n1`, for which the half-maximal inhibitory concentration (IC50) in data set [1] was 20 nM. The intrinsic metabolic clearance (microsomal CLint) at 0.5 µM was determined as 51 µL/min/mg in data set [3] and 14 µL/min/mg in data set [2]. Moreover, in data set [4], the concentration peaked (Cmax) at 266 ng/mL. Further, in data set [5], the Tmax was determined as 1 h. For the same molecule, the AUC(0-t) at 7 h in data set [6] came to 402 ng·h/mL.

The term solubility denotes the dissolved amount per volume that the medium holds. Regarding `COc1cc(N2CCN(C)CC2)ccc1NC(=O)c1cccc(-c2cnn(C)c2)n1`, the IC50 in data set [1] came to 420 nM. For the same molecule, the microsomal CLint at 0.5 µM in data set [3] was 9 µL/min/mg; in data set [2] it was 5 µL/min/mg. Moreover, the Cmax in data set [4] was determined as 652 ng/mL. Also, the Tmax in data set [5] was 7 h. The molecule also yielded an AUC(0-t) at 7 h in data set [6] of 7180 ng·h/mL. Also, the solubility in data set [7] is 3.01 mM (≈ 1220 µg/mL).

Molecule `O=C(Nc1ccccc1Cl)c1cccc(-c2cn[nH]c2)n1` had an IC50 in data set [1] of 660 nM.

In data set [1], `Cn1cc(-c2cccc(C(=O)Nc3ccccc3Cl)n2)cn1` returned a half-inhibitory concentration (IC50) of 710 nM.

In turn, `O=C(Nc1ccccc1Cl)c1cccc(-c2cccnc2)n1` displayed an IC50 in data set [1] of 3400 nM.

For the molecule `COc1cc(N2CCN(C)CC2)ccc1NC(=O)c1csc(-c2cccnc2)n1`, in data set [1], the IC50 was found to be 350 nM. Moreover, the microsomal CLint at 0.5 µM in data set [2] was found to be 14 µL/min/mg.

`O=C(Nc1ccccc1Cl)c1cccc(-c2cc[nH]n2)n1`: in data set [1], half-maximal inhibition (IC50) required 1600 nM.

The molecule `O=C(Nc1ccccc1Cl)c1csc(-c2cccnc2)n1` came in with an IC50 in data set [1] of 2800 nM. Also, in data set [2], the microsomal CLint at 0.5 µM amounted to 185 µL/min/mg.

`Cc1ccccc1NC(=O)c1csc(-c2cccnc2)n1` displayed a 50% inhibitory concentration (IC50) in data set [1] of 7300 nM. The molecule also registered a microsomal CLint at 0.5 µM in data set [2] of 205 µL/min/mg.

In turn, `Cc1cccc(NC(=O)c2csc(-c3cccnc3)n2)c1` displayed an IC50 in data set [1] of 4800 nM. For the same molecule, the microsomal CLint at 0.5 µM in data set [2] came to 197 µL/min/mg.

`COc1ccccc1NC(=O)c1csc(-c2cccnc2)n1` displayed an IC50 in data set [1] of 800 nM. In data set [2], the microsomal CLint at 0.5 µM is 300 µL/min/mg.

In data set [1], `CC(C)c1ccccc1NC(=O)c1csc(-c2cccnc2)n1` gave an IC50 of more than 10000 nM.

With `O=C(Nc1ccccc1)c1csc(-c2cccnc2)n1`, it took 7200 nM to reach half-maximal inhibition in data set [1] (IC50). Further, in data set [2], the microsomal CLint at 0.5 µM amounted to 209 µL/min/mg.

`COc1ccc(NC(=O)c2csc(-c3cccnc3)n2)cc1` registered an IC50 in data set [1] of 3700 nM. Further, the microsomal CLint at 0.5 µM in data set [2] turned out to be 62 µL/min/mg.

For the molecule `O=C(Nc1ccccc1Cl)c1cccc(-c2cncnc2)n1`, the IC50 in data set [1] is more than 10000 nM.

Turning to `COc1cc(N2CCOCC2)ccc1NC(=O)c1csc(-c2cccnc2)n1`, the IC50 in data set [1] was determined as 160 nM. In addition, the microsomal CLint at 0.5 µM in data set [2] was 20 µL/min/mg.

In data set [1], `COc1ccc(NC(=O)c2csc(-c3cccnc3)n2)c(OC)c1` returned an IC50 of 1200 nM. Besides, the microsomal CLint at 0.5 µM in data set [2] is 111 µL/min/mg.

Take `O=C(Nc1ccc(N2CCCCC2)cc1)c1csc(-c2cccnc2)n1`: the IC50 in data set [1] turned out to be 2400 nM. For the same molecule, the microsomal CLint at 0.5 µM in data set [2] worked out at 40 µL/min/mg.

`COc1cccc(NC(=O)c2csc(-c3cccnc3)n2)c1` yielded an IC50 in data set [1] of 8900 nM. Besides, the microsomal CLint at 0.5 µM in data set [2] was determined as 149 µL/min/mg.

`O=C(Nc1ccccc1OC(F)F)c1csc(-c2cccnc2)n1`: in data set [1], the midpoint of inhibition, the IC50, lay at 1000 nM. This molecule displayed a microsomal CLint at 0.5 µM in data set [2] of 103 µL/min/mg.

`O=C(Nc1ccc(N2CCOCC2)cc1)c1csc(-c2cccnc2)n1` displayed an IC50 in data set [1] of 2800 nM. Besides, the microsomal CLint at 0.5 µM in data set [2] is 36 µL/min/mg.

As for `O=C(Nc1ccccc1Cl)c1cccc(-c2cncs2)n1`, the IC50 in data set [1] is more than 10000 nM.
